For 7 molecules, inhibition results are on record in ChEMBL document CHEMBL3132769, “Fragment growing to retain or alter the selectivity of anchored kinase hinge-binding fragments” (Medchemcomm, 2014).

The target in test [1] is T1, MAP kinase-activated protein kinase 5 (Homo sapiens) (UniProt Q8IW41).
T1 sequence (whole entry): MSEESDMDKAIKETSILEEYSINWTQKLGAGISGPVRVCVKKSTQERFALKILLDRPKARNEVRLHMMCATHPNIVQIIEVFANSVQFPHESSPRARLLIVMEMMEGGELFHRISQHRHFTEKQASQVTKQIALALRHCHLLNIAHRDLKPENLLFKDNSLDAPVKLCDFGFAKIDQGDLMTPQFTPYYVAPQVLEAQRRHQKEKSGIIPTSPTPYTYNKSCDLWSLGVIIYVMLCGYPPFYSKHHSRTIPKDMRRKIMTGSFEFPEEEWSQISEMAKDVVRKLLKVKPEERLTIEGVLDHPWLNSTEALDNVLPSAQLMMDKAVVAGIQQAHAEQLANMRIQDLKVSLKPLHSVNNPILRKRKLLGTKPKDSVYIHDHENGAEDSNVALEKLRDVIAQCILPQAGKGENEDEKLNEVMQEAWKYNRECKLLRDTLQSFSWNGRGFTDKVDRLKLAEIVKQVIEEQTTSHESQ
Briefly: Inhibition of human full length PRAK expressed in baculovirus assessed as substrate phosphorylation using fluorescence-labelled peptides as substrate at 8 uM after 90 mins by microfluidic peptide phosphorylation assay.

The target of test [2] is RAF proto-oncogene serine/threonine-protein kinase (Homo sapiens) (UniProt P04049). Briefly: Inhibition of human truncated c-Raf expressed in baculovirus assessed as substrate phosphorylation using fluorescence-labelled peptides as substrate at 0.1 uM after 90 mins by microfluidic peptide phosphorylation assay.
Chain of RAF proto-oncogene serine/threonine-protein kinase (Homo sapiens) (P04049 whole entry, the tested form may be a part): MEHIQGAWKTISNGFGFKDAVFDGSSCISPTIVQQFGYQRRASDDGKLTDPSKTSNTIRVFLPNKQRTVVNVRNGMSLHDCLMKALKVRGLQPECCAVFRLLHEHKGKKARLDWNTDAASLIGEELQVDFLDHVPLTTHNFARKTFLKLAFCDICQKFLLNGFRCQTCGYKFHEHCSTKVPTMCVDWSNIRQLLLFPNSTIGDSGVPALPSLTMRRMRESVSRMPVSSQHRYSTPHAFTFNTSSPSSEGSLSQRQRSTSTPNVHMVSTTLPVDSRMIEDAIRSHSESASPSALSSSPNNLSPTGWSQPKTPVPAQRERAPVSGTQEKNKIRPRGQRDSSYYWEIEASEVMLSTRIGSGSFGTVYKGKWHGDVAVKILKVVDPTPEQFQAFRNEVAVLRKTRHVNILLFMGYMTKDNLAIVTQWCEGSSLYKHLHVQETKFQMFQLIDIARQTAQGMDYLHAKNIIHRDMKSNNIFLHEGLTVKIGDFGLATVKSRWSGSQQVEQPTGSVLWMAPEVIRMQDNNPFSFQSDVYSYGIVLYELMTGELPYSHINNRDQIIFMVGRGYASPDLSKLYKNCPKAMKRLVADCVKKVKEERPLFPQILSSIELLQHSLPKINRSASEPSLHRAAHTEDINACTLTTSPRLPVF
For test [3], the target named is T2, Aurora kinase A (Homo sapiens) (UniProt O14965).
T2 sequence (whole entry): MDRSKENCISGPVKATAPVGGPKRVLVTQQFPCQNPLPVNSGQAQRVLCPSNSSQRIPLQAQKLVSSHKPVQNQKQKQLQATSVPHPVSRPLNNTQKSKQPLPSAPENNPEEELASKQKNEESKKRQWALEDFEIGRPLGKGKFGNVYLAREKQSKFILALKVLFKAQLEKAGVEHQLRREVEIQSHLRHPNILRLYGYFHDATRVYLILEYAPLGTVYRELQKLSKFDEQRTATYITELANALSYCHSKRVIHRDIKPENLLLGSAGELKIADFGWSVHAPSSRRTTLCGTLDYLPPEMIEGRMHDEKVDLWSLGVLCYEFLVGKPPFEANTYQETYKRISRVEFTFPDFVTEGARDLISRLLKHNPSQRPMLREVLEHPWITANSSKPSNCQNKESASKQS
Briefly: Inhibition of human full length AurA expressed in baculovirus assessed as substrate phosphorylation using fluorescence-labelled peptides as substrate at 0.06 uM after 90 mins by microfluidic peptide phosphorylation assay.

In test [4] the target is Mitogen-activated protein kinase 14 (Homo sapiens) (UniProt Q16539). The test can be described thus: Inhibition of human truncated p38 alpha expressed in Escherichia coli cell assessed as substrate phosphorylation using fluorescence-labelled peptides as substrate at 0.06 uM after 90 mins by microfluidic peptide phosphorylation assay.
Chain of Mitogen-activated protein kinase 14 (Homo sapiens) (Q16539 whole entry, the tested form may be a part): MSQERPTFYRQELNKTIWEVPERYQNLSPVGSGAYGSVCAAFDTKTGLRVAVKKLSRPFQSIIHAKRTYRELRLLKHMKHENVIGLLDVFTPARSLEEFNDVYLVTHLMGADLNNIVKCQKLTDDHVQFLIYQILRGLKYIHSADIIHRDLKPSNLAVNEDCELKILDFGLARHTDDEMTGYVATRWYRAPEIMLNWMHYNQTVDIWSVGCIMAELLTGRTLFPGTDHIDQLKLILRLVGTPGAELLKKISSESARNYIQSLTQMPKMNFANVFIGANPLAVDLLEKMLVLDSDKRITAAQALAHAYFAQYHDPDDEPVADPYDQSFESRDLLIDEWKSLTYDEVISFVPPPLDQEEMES
Test [5] concerns the target T3, Inhibitor of nuclear factor kappa-B kinase subunit beta (Homo sapiens) (UniProt O14920).
T3 sequence (whole entry): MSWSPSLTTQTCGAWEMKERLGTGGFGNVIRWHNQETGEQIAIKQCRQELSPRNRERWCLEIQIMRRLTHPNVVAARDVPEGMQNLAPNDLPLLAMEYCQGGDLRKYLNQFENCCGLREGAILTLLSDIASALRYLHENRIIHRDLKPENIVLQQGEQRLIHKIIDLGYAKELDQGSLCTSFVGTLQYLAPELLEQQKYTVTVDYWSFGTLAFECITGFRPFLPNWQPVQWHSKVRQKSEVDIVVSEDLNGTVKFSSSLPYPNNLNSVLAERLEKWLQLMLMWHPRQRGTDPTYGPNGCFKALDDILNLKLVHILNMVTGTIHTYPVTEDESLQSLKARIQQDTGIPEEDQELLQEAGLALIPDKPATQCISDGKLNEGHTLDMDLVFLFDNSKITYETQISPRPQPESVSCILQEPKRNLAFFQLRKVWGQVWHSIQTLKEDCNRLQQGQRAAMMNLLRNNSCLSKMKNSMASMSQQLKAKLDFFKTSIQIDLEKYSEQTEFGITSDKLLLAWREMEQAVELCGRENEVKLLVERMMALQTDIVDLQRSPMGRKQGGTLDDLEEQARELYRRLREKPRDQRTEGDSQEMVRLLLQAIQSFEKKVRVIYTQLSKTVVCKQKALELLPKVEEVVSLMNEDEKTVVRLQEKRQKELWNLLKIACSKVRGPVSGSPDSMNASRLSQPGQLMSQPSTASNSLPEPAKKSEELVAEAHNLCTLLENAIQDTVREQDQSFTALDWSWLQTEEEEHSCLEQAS
Briefly: Inhibition of human full length IKK beta expressed in baculovirus assessed as substrate phosphorylation using fluorescence-labelled peptides as substrate at 9 uM after 90 mins by microfluidic peptide phosphorylation assay.

Test [6] relates to Tyrosine-protein kinase ABL1 (Homo sapiens), P00519 [Q252H]. Briefly: Inhibition of human truncated ABL Q252H mutant expressed in baculovirus assessed as substrate phosphorylation using fluorescence-labelled peptides as substrate at 9 uM after 90 mins by microfluidic peptide phosphorylation assay.
Test [7] concerns the target MAP/microtubule affinity-regulating kinase 3 (Homo sapiens) (UniProt P27448). Briefly: Inhibition of human full length c-TAK1 expressed in Escherichia coli cell assessed as substrate phosphorylation using fluorescence-labelled peptides as substrate at 2 uM after 90 mins by microfluidic peptide phosphorylation assay.
The target in test [8] is Mitogen-activated protein kinase 3 (Homo sapiens) (UniProt P27361). The test can be described thus: Inhibition of human full length ERK1 expressed in Escherichia coli cell assessed as substrate phosphorylation using fluorescence-labelled peptides as substrate at 2 uM after 90 mins by microfluidic peptide phosphorylation assay.
Chain of Mitogen-activated protein kinase 3 (Homo sapiens) (P27361 whole entry, the tested form may be a part): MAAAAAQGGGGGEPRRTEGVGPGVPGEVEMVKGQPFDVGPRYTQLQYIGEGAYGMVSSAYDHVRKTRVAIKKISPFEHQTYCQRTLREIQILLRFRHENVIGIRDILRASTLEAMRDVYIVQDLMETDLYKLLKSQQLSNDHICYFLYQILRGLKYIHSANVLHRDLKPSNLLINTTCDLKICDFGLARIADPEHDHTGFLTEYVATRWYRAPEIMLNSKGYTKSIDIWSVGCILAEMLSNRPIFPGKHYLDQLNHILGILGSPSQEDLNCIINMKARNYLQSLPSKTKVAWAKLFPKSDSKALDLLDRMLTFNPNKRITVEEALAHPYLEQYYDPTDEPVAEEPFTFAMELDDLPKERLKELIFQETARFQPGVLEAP
The target in test [9] is Platelet-derived growth factor receptor alpha (Homo sapiens) (UniProt P16234). The test can be described thus: Inhibition of human PDGFR alpha catalytic domain expressed in baculovirus assessed as substrate phosphorylation using fluorescence-labelled peptides as substrate at 1000 uM after 90 mins by microfluidic peptide phosphorylation assay.
Chain of Platelet-derived growth factor receptor alpha (Homo sapiens) (P16234 whole entry, the tested form may be a part): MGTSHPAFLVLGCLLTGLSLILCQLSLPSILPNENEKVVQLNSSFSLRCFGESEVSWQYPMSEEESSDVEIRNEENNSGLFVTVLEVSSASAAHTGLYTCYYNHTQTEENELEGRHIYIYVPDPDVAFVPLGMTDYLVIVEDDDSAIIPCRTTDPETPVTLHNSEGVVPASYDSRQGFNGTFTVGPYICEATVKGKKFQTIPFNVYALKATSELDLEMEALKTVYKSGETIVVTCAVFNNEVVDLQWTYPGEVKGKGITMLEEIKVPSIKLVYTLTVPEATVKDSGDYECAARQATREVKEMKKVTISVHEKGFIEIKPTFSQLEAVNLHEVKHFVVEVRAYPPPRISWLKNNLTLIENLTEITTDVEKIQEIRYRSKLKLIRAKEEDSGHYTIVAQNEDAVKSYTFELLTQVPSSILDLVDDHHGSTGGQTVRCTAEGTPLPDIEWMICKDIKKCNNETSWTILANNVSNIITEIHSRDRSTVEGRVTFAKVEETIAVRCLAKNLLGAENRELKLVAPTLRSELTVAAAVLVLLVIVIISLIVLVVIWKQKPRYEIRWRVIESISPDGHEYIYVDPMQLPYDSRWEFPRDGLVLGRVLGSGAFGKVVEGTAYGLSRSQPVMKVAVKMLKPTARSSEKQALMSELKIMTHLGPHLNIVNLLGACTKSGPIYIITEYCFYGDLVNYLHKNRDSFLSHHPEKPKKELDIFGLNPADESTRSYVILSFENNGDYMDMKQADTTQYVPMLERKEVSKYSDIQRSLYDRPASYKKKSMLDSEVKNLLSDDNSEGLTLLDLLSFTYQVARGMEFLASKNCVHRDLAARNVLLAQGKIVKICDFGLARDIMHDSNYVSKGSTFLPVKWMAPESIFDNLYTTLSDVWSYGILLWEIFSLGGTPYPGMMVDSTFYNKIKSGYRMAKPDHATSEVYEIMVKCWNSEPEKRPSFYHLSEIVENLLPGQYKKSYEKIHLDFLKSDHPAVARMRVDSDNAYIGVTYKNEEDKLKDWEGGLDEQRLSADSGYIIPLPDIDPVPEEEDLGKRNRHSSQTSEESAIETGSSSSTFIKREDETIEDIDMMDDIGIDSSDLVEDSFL
In test [10] the target is Ribosomal protein S6 kinase alpha-2 (Homo sapiens) (UniProt Q15349). The test can be described thus: Inhibition of human full length RSK3 expressed in baculovirus assessed as substrate phosphorylation using fluorescence-labelled peptides as substrate at […] after 90 mins by microfluidic peptide phosphorylation assay.
Chain of Ribosomal protein S6 kinase alpha-2 (Homo sapiens) (Q15349 whole entry, the tested form may be a part): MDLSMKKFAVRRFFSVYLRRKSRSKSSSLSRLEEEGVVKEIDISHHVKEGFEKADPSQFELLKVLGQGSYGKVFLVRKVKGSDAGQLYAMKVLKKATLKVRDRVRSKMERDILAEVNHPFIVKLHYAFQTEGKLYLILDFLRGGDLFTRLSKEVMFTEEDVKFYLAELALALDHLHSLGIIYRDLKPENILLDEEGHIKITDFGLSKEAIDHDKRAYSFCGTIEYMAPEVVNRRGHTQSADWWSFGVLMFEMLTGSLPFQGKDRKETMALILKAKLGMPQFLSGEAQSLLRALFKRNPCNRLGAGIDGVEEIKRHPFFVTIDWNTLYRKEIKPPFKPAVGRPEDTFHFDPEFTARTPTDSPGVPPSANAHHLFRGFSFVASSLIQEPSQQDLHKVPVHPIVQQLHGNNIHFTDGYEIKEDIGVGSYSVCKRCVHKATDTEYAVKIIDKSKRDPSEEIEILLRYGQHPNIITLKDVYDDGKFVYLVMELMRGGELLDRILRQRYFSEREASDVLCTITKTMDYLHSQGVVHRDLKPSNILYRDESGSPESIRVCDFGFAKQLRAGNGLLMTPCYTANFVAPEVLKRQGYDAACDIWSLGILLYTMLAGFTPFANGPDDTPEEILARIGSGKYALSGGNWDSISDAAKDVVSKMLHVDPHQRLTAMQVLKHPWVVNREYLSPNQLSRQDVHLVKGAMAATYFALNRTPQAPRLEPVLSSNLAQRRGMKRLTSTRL
The test system of test [11] is Tyrosine-protein kinase ABL1 (Homo sapiens), P00519 [H396P]. Briefly: Inhibition of human truncated ABL H396P mutant expressed in baculovirus assessed as substrate phosphorylation using fluorescence-labelled peptides as substrate at […] after 90 mins by microfluidic peptide phosphorylation assay.
In test [12] the target is T2, Aurora kinase A (Homo sapiens). Briefly: Inhibition of human full length AurA expressed in baculovirus assessed as substrate phosphorylation using fluorescence-labelled peptides as substrate at […] after 90 mins by microfluidic peptide phosphorylation assay.

Chain of MAP/microtubule affinity-regulating kinase 3 (Homo sapiens) (P27448 whole entry, looked up): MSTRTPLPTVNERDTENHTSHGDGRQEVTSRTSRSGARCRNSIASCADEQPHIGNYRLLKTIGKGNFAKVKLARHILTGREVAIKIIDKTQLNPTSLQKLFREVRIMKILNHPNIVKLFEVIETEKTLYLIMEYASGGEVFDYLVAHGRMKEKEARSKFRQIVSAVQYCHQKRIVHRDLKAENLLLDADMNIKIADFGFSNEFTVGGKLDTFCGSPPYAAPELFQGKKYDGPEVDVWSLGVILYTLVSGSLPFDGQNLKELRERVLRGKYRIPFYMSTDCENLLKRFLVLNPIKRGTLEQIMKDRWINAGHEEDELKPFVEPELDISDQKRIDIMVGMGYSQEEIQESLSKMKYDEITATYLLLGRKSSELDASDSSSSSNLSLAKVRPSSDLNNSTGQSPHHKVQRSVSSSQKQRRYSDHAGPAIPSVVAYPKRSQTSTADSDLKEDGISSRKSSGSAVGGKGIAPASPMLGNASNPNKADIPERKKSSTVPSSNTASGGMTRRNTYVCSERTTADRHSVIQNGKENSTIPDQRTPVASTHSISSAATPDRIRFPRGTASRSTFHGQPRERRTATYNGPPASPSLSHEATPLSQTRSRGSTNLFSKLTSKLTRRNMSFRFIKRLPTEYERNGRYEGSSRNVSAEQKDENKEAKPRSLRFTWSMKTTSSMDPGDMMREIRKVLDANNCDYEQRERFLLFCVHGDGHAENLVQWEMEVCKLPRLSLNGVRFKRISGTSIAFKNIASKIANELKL

As to `NCC1CCN(c2ncnc3[nH]ccc23)CC1`, the inhibition in test [1] was determined as 51.5%.

For the molecule `C[C@H](CN(C)C)Oc1nc(Nc2cc3cccc(Cl)c3cn2)cnc1C#N`, in [2], the inhibition is 4%.

With `NC1(Cc2ccc(Cl)cc2)CCN(c2ncnc3[nH]ccc23)CC1`, the inhibition in [3] was determined as 7.5%; in [4], 0%.

As for `NCC1CN(c2ncnc3[nH]c4cnccc4c23)CCO1` (configuration not stated), the figures for the inhibition in test [5] and in test [6] were 83% and 6%, respectively.

`NC1CCN(c2ncnc3[nH]ccc23)CC1`: the inhibition in test [7] came to 3%; in test [8], 1%.

As to `c1cnc2[nH]ccc2c1`, the inhibition in test [9] came to 31.5%.

Take `COC(=O)c1cnc(Nc2cnc(C#N)cn2)cc1NCC1CCNCC1`: the inhibition in test [10] amounted to 44%; in test [11] it was 1%; in test [12] it was 6.5%.
